Drawing on patent US7417045B2, “Heterocyclic substituted pyridine or phenyl compounds with CXCR3 antagonist activity” (Schering Corporation, priority 2005, dated 2008), this text covers IC50 for 45 compounds.

SMILES strings stand for the structures.

By IC50 is commonly meant the concentration that gives 50% inhibition. Read a high IC50 as weaker potency in that assay.

This experiment addresses T1, human CXCR3 (N-delta 4) (Homo sapiens, UniProt P49682).
T1 construct: CD8 leader (N); Flag tag; expressed in transfected cells; membranes
T1 sequence (P49682 5-368 limits assumed): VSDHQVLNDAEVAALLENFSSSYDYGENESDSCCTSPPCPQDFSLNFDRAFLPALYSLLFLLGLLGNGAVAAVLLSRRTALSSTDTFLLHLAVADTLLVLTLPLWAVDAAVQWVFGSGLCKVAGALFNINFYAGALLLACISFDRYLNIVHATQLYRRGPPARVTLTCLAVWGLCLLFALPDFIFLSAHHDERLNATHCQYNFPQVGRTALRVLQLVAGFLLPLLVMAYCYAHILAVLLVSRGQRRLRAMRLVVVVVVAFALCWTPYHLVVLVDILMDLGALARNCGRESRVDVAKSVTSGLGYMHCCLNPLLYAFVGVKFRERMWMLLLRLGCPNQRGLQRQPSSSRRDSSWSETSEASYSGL
Kind of experiment: Human CXCR3 (N-delta 4) Scintillation Proximity Assay (SPA), [125I] IP-10 binding. The following applies: IC50 rating; [125I] IP-10 displacement, Ba/F3-hCXCR3 (N-delta 4) membranes. The text has this:
The inventive compounds can readily be evaluated to determine activity at The CXCR3 receptors by known methods, such as, for example, Development of Human CXCR3 (N-delta 4) Binding Assay.
Cloning and Expression of Human CXCR3 (N-Delta 4):
The DNA encoding human CXCR3 was cloned by PCR using human genomic DNA (Promega, Madison, Wis.) as a template. The PCR primers were designed based on the published sequence of human orphan receptor GPR9 (1) with incorporated restriction sites, a Kozak consensus sequence, CD8 leader and Flag tag. The PCR product was subcloned into the mammalian expression vector pME18Sneo, a derivative of the SR-alpha expression vector (designated as pME18Sneo-hCXCR3 (N-delta 4).
IL-3-dependent mouse pro-B cells Ba/F3 were transfected by electroporation in 0.4 ml Dulbecco's PBS containing 4×10^6 cells with 20 μg of pME18Sneo-hCXCR3 (N-delta 4) plasmid DNA. Cells were pulsed at 400 Volts, 100 OHMs, 960 μFd. The transfected cells were under selection with 1 mg/ml G418 (Life Technologies, Gaithersburg, Md.). G418-resistant Ba/F3 clones were screened for CXCR3 expression by specific binding of [^125I] IP-10 (NEN Life Science Products, Boston, Mass.).
Preparation of Ba/F3-hCXCR3 (N-Delta 4) Membranes
Ba/F3 cells expressing human CXCR3 (N-delta 4) were pelleted and resuspended in the lysis buffer containing 10 mM HEPES, pH 7.5 and Complete® protease inhibitors (1 tablet per 100 ml) (Boehringer Mannheim, Indianapolis, Ind.) at a cell density of 20×10^6 cells per ml. After 5 minutes incubation on ice, cells were transferred to 4639 cell disruption bomb (Parr Instrument, Moline, Ill.) and applied with 1,500 psi of nitrogen for 30 minutes on ice. Large cellular debris was removed by centrifugation at 1,000× g. Cell membrane in the supernatant was sedimented at 100,000× g. The membrane was resuspended in the lysis buffer supplemented with 10% sucrose and stored at −80° C. Total protein concentration of the membrane was determined by BCA method from Pierce (Rockford, Ill.).
Human CXCR3 (N-Delta 4) Scintillation Proximity Assay (SPA)
For each assay point, 2 μg of membrane was preincubated for 1 hr with 300 μg wheat germ agglutinin (WGA) coated SPA beads (Amersham, Arlington Heights, Ill.) in the binding buffer (50 mM HEPES, 1 mM CaCl2, 5 mM MgCl2, 125 mM NaCl, 0.002% NaN3, 1.0% BSA) at room temperature. The beads were spun down, washed once, resuspended in the binding buffer and transferred to a 96-well Isoplate (Wallac, Gaithersburg, Md.). 25 pM of [^125I] IP-10 with tested compounds in a series of titration were added to start the reaction. After 3 hr reaction at room temperature, the amount of [^125I] IP-10 bound to the SPA beads was determined with a Wallac 1450 Microbeta counter.
A general note: SPA uses beads or plates that emit light when radiolabelled molecules are held near them.
In the case of `CC[C@H]1CN(c2ncc(-c3ncc[nH]3)cc2Cl)CCN1C1CCN(C(=O)c2ccc(-c3csnn3)cc2)CC1` [Compound 109], the IC50 was in the range of 25 to 100 nM. With `CC[C@H]1CN(c2ncc(-c3ncc[nH]3)cc2Cl)CCN1C1CCN(Cc2ccc(Cl)cc2-c2n[nH]c(=O)o2)CC1` [Compound 57] the figure was under 25 nM. The result for `CC[C@H]1CN(c2ncc(-c3nnco3)cc2Cl)CCN1C1CCN(Cc2ccc(Cl)cc2F)CC1` [Compound 27] reads under 25 nM; that for `CCOC1(C)NN=C(c2cnc(N3CCN(C4CCN(C(=O)c5ccc(Br)cc5)CC4)[C@@H](CC)C3)c(Cl)c2)O1` (stereo partly drawn) [Compound 158], over 100 nM.

Compound `C[C@H]1CN(c2ncc(-c3nc4ccccc4[nH]3)cc2Cl)CCN1C1CCN(Cc2ccc(Cl)cc2)CC1` [Compound 110] showed a 50% inhibitory concentration (IC50) of 25 to 100 nM. With `CC[C@H]1CN(c2ncc(-c3nccn3S(C)(=O)=O)cc2Cl)CCN1C1CCN(Cc2ccc(Cl)cc2F)CC1` [Compound 121] the figure was 25 to 100 nM; with `CC[C@H]1CN(c2ncc(-c3nc(C(O)C(F)(F)F)cn3C(O)C(F)(F)F)cc2Cl)CCN1C1CCN(C(=O)c2ccc(Cl)cc2)CC1` (stereo partly drawn) [Compound 163], over 100 nM; with `CC[C@H]1CN(c2ncc(-c3nnc(C(C)(C)O)o3)cc2Cl)CCN1C1CCN(Cc2ccc(Cl)cc2F)CC1` [Compound 98], under 25 nM. With `CC[C@H]1CN(c2ncc(-c3ncc[nH]3)cc2Cl)CCN1C1CCN(C(C)c2ccc(N3CCOCC3)cc2)CC1` (stereo partly drawn) [Compound 139] the figure was over 100 nM; with `CC[C@H]1CN(c2ncc(-c3ncc[nH]3)cc2Cl)CCN1C1CCN(C(=O)c2ccc(Cl)cc2)CC1` [Compound 47], under 25 nM; with `CC[C@H]1CN(c2ncc(-c3ncc[nH]3)cc2Cl)CCN1C1CCN(Cc2ccc(C#CC(C)(C)NS(C)(=O)=O)cc2)CC1` [Compound 137], over 100 nM. With `CC[C@H]1CN(c2ncc(-c3n[nH]c(=O)[nH]3)cc2Cl)CCN1C1CCN(Cc2ccc(Cl)cc2F)CC1` [Compound 88] the figure was under 25 nM; with `CC[C@H]1CN(c2ncc(-c3nnc(C)o3)cc2Cl)CCN1C1CCN(C(=O)c2ccc(Br)cc2)CC1` [Compound 120], 25 to 100 nM; with `CC[C@H]1CN(c2ncc(-c3ncc[nH]3)cc2Cl)CCN1C1CCN(C(=O)c2ccc(OC(F)(F)F)cc2)CC1` [Compound 126], 25 to 100 nM. For `CC[C@H]1CN(c2ncc(-c3ncc[nH]3)cc2Cl)CCN1C1CCN(Cc2ccc(Cl)cc2C(=O)NN)CC1` [Compound 60], the concentration for half-maximal inhibition (IC50) was under 25 nM. The result for `CC[C@H]1CN(c2ncc(-c3ncc[nH]3)cc2Cl)CCN1C1CCN(Cc2ccc(-c3ccccc3)cc2)CC1` [Compound 37] reads under 25 nM; that for `CC[C@H]1CN(c2ncc(-c3ncc[nH]3)cc2Cl)CCN1C1CCN(C(=O)c2ccc(-n3cncn3)nc2)CC1` [Compound 112], 25 to 100 nM. The result for `Fc1cc(Cl)ccc1CN1CCC(N2CCN(c3ncc(-c4ncc[nH]4)cc3Cl)CC2C2CC2)CC1` (stereo not drawn) [Compound 77] reads under 25 nM. The compound `CC[C@H]1CN(c2ncc(-c3ncc[nH]3)cc2Cl)CCN1C1CCN([C@@H](C(=O)NC2CC2)c2ccc(Cl)cc2)CC1` [Compound 36] displayed an IC50 of under 25 nM.

Compound `CC[C@H]1CN(c2ncc(-c3ncc[nH]3)cc2Cl)CCN1C1CCN(Cc2ccc(C#CC(C)(C)O)cc2)CC1` [Compound 23] yielded a 50% inhibitory concentration (IC50) of under 25 nM. The result for `CC[C@H]1CN(c2ncc(-c3nnc[nH]3)cc2Cl)CCN1C1CCN(Cc2ccc(Cl)cc2F)CC1` [Compound 69] reads under 25 nM; that for `CC[C@H]1CN(c2ncc(-c3ncc[nH]3)cc2Cl)CCN1C1CCN(Cc2ccc(Cl)cc2-c2nnn[nH]2)CC1` [Compound 52], under 25 nM; that for `CC[C@H]1CN(c2ncc(-c3nnc(N)o3)cc2C)[C@H](C)CN1C1CCN(Cc2ccc(OC(F)(F)F)cc2)CC1` [Compound 174], under 25 nM. The result for `CC[C@H]1CN(c2ncc(C3=NCCN3)cc2Cl)CCN1C1CCN(Cc2ccc(Cl)cc2C(=O)NCCO)CC1` [Compound 94] reads under 25 nM; that for `CC[C@H]1CN(c2ncc(-c3ncc[nH]3)cc2Cl)CCN1C1CCN([C@H](C(=O)OC)c2ccc(Br)cc2)CC1` [Compound 127], 25 to 100 nM. With `CC[C@H]1CN(c2ncc(-c3ncc[nH]3)cc2Cl)CCN1C1CCN(C(=O)C2(c3ccc(Cl)cc3)CC2)CC1` [Compound 154] the figure was over 100 nM; with `CC[C@H]1CN(c2ncc(-c3ncc[nH]3)cc2Cl)CCN1C1CCN(C(=O)c2ccc(C#CC(C)(C)NC(=O)OC(C)(C)C)cc2)CC1` [Compound 142], over 100 nM. On to `CC[C@H]1CN(c2ncc(C3=NC(C)(C)CN3)cc2Cl)CCN1C1CCN(C(=O)c2ccc(Cl)cc2)CC1` [Compound 105], for which the IC50 lay within 25 to 100 nM.

`CC[C@H]1CN(c2ncc(-c3ncc[nH]3)cc2Cl)CCN1C1CCN(C(=O)c2ccc(-n3cccn3)cc2)CC1` [Compound 102] gave an IC50 of 25 to 100 nM. The result for `CC[C@H]1CN(c2ncc(-c3ncc[nH]3)cc2Cl)CCN1C1CCN(Cc2ccc(-n3cncn3)cc2)CC1` [Compound 76] reads under 25 nM; that for `CC[C@H]1CN(c2ncc(-c3nccn3CCC(=O)c3ccc(Cl)cc3)cc2Cl)CCN1C1CCN(CCC(=O)c2ccc(Cl)cc2)CC1` [Compound 165], over 100 nM; that for `CC[C@H]1CN(c2ncc(-c3noc(=O)[nH]3)cc2Cl)CCN1C1CCN(Cc2ccc(Cl)cc2F)CC1` [Compound 160], over 100 nM.

In turn, `CC[C@H]1CN(c2ncc(-c3ncc[nH]3)cc2Cl)CCN1C1CCN([C@H](C(=O)OC)c2ccc(Cl)cc2)CC1` [Compound 133] displayed a half-maximal inhibitory concentration (IC50) of over 100 nM. With `CC[C@H]1CN(c2ncc(C3=NCCN3C(=O)c3ccc(Cl)cc3)cc2Cl)CCN1C1CCN(C(=O)c2ccc(Cl)cc2)CC1` [Compound 146] the figure was over 100 nM. The result for `CC[C@H]1CN(c2ncc(-c3ncc[nH]3)cc2Cl)CCN1C1CCN(Cc2ccc(Cl)cc2C(=O)OC)CC1` [Compound 50] reads under 25 nM; that for `CC[C@H]1CN(c2ncc(C3=NCCN3)cc2Cl)CCN1C1CCN(C(=O)c2ccc(Cl)cc2C#N)CC1` [Compound 82], under 25 nM. Regarding `CC[C@H]1CN(c2ncc(C3=NCCN3)cc2Cl)CCN1C1CCN(Cc2ccc(Cl)cc2C(=O)OC)CC1` [Compound 61], the IC50 is under 25 nM. `CC[C@H]1CN(c2ncc(C3=NCCN3)cc2Cl)CCN1C1CCN(Cc2ccc(C#CC(C)(C)O)cc2)CC1` [Compound 54] had an IC50 of under 25 nM. With `CC[C@H]1CN(c2ncc(-c3nnc(COC(C)=O)o3)cc2Cl)CCN1C1CCN(Cc2ccc(Cl)cc2F)CC1` [Compound 84] the figure was under 25 nM; with `CC[C@H]1CN(c2ncc(-c3nnco3)cc2Cl)CCN1C1CCN(C(=O)c2ccc(Br)cc2)CC1` [Compound 129], 25 to 100 nM. With `CC[C@H]1CN(c2ncc(-c3ncc[nH]3)cc2Cl)CCN1C1CCN(C(=O)c2ccc(-n3cccc3)nc2)CC1` [Compound 81] the figure was under 25 nM. The compound `CC[C@H]1CN(c2ncc(C3=NCCN3)cc2Cl)CCN1C1CCN(C(=O)c2ccc(Cl)cc2C(N)=NO)CC1` [Compound 93] had a half-maximal inhibitory concentration (IC50) of under 25 nM. The result for `CC[C@H]1CN(c2ncc(-c3ncc[nH]3)cc2Cl)CCN1C1CCN(C(=O)c2ccc(Cl)cc2C#N)CC1` [Compound 62] reads under 25 nM; that for `CC[C@H]1CN(c2ncc(-c3ncc[nH]3)cc2Cl)CCN1C1CCN(CCCC(=O)c2ccc(Cl)cc2)CC1` [Compound 83], under 25 nM. With `CC[C@H]1CN(c2ncc(-c3nnc(N)o3)cc2C(F)(F)F)[C@H](C)CN1C1CCN(Cc2ccc(OC(F)(F)F)cc2)CC1` [Compound 175] the figure was under 25 nM.
